For data set [1], the system named is green rice leafhoppers (Nephotettix cincpriceps). Nature of the data set: Knock-down of green rice leafhoppers on treated rice seedlings (Experiment 3). Particulars: 400-fold aqueous diluted solution of 20% emulsifiable concentrate. Type of data set: in vivo. As for the experimental part: Each of the present compounds (1) to (7), and the corresponding chrysanthemic acid esters were individually formulated into a 20% emulsifiable concentrate by usual methods.
About 20 rice seedlings were grown up to a 3- to 4-leave stage in a flower pot of 10 cm in diameter, and the 400-fold aqueous diluted solution of each emulsifiable concentrate was applied thereto by means of a turn table.
After air-drying, each pot was placed in a 5 liter glass beaker and covered with gauze at the top. Then, 20 green rice leafhoppers (Nephotettix cincpriceps) were liberated therein and the number of knocked down insects were counted at definite time intervals.

The subject of data set [2] is house-fly adults (Musca domestica). Nature of the data set: Oil spray, Campbel's turn table apparatus, house-fly adults (Experiment 1). Format: in vivo. The following applies: for LC50: Musca domestica, read-out: LC50 (50% lethal concentration); for Relative efficacy: corresponding dl-trans-chrysanthemic acid ester (control) = 1.0. As for the experimental part: The dl-trans isomer of each of the present compounds (1), (2), (4) and (7), and the corresponding dl-trans-chrysanthemic acid esters were individually dissolved in deodorized kerosene to prepare oil sprays of required concentration.
5 ml of each of the oil sprays were sprayed, using Campbel's turn table apparatus ("Soap and Sanitary Chemicals," Vol. 14, No. 6, 119, 1938). Twenty seconds after spraying, the shutter was opened, and about 100 house-fly adults (Musca domestica) per group were exposed to the descending mist for 10 minutes and then transferred to the observation cage. In the cage, the flies were fed and allowed to stand for one day at room temperature.
Thereafter, the number of killed flies was counted to calculate the mortality thereof.

Data set [3] deals with fourth instar larvae of diamond-back moth (Plutella maculipennis). As to the kind of experiment: Emulsifiable concentrate sprayed on chinese cabbage leaves, diamond-back moth larvae (Experiment 2). Particulars: for LC50: Plutella, 48 h, 20% emulsifiable concentrate diluted with water, after 2 days, read-out: LC50 (50% lethal concentration); for Relative efficacy: corresponding chrysanthemic acid ester (control) = 1.0. Type of data set: in vivo. As for the experimental part:
Each of the present compounds (1), (2) and (5), and the corresponding chrysanthemic acid esters were individually formulated into a 20% emulsifiable concentrate by usual methods.
10 ml of each of the emulsifiable concentrates which had been diluted with water to the required concentration were sprayed on to four leaves of chinese cabbage grown up to a 3- to 4-leave stage. Then the leaves were placed in a glass Petri dish of 14 cm in diameter and 7 cm high, and 10 fourth instar larvae of diamond-back moth (Plutella maculipennis) were liberated therein. After 2 days, the dead and alive were counted.

Another data set has as its system insects. The following applies: J. Farkas et al., Chem. Listy 52, 688, 1958; cited from earlier work.

≈ marks a conversion by molar mass, not a printed value.

Turning to `CC(C)=CC1C(C(=O)OCc2ccc(C3C=CCC3)s2)C1(C)C` (stereo not shown), the “KT50 (a time required for 50% knock-down)” value in data set [1] was 40 min. With `CC1(C)[C@H](C=C(Cl)Cl)[C@H]1C(=O)OCc1cc2c(s1)CCCC2` (relative stereo) [dl-Trans isomer of present compound (4), 4-5-Tetramethylene-2-thenyl 2',2'-dimethyl-3'-(2",2"-dichlorovinyl)-cyclopropanecarboxylate], the LC50 in data set [2] (24 h) was found to be 217 µg/mL (≈ 604 µM). Further, in data set [2], the Relative efficacy turned out to be 3.8.

For the compound `CC1(C)[C@H](C=C(Cl)Cl)[C@H]1C(=O)OCc1ccc(Oc2ccccc2)s1` (relative stereo) [dl-Trans isomer of present compound (2), 5-Phenoxy-2-thenyl 2',2'-dimethyl-3'-(2",2"-dichlorovinyl)-cyclopropanecarboxylate], the LC50 in data set [2] (24 h) was determined as 135 µg/mL (≈ 340 µM). For the same compound, in data set [2], the Relative efficacy came to 4.0. On the same counts, the results for `CC(C)=C[C@@H]1[C@@H](C(=O)OCc2ccc(Cc3ccccc3)s2)C1(C)C` (relative stereo) are 386 µg/mL (≈ 1090 µM) and 1.0. In the case of `CC(C)=CC1C(C(=O)OCc2csc(Cc3ccccc3)c2)C1(C)C` (stereo not shown), the “KT50 (a time required for 50% knock-down)” value in data set [1] came out at 53 min. Take Pyrethrin: the “LC50 (50% lethal concentration)” value in data set [2] (house fly, in vivo, 24 h) amounted to 216 mg/100 ml. With `C#CCc1ccc(COC(=O)C2C(C=C(C)C)C2(C)C)s1` (stereo not shown), the “KT50 (a time required for 50% knock-down)” value in data set [1] was found to be 38 min. Same read-out and setting: the same measure for `CC1(C)C(C=C(Cl)Cl)C1C(=O)OCc1ccc(C2C=CCC2)s1` (stereo not shown) [Present compound (8), 5-(2'-cyclopentene-1'-yl)-2-thenyl 2",2"-dimethyl-3"-(2"',2"'-dichlorovinyl)-cyclopropanecarboxylate]: 19 min; for `CC1(C)C(C=C(Cl)Cl)C1C(=O)OCc1csc(Cc2ccccc2)c1` (stereo not shown) [Present compound (3), 5-Benzyl-3-thenyl 2',2'-dimethyl-3'-(2",2"-dichlorovinyl)-cyclopropanecarboxylate]: 30 min; for `CC(C)=CC1C(C(=O)OCc2cc3c(s2)CCCC3)C1(C)C` (stereo not shown): 46 min. As for `CC1(C)C(C=C(Cl)Cl)C1C(=O)OCc1cc2c(s1)CCC2` (stereo not shown) [Present compound (5), 4,5-Trimethylene-2-thenyl 2',2'-dimethyl-3'-(2",2"-dichlorovinyl)-cyclopropanecarboxylate], in data set [3], the LC50 amounted to 47 µg/mL (≈ 136 µM) and the Relative efficacy came to 2.4. Besides, the “KT50 (a time required for 50% knock-down)” value in data set [1] turned out to be 21 min. On the same counts, the results for `CC1(C)C(C=C(Cl)Cl)C1C(=O)OCc1ccc(Cc2ccccc2)s1` (stereo not shown) [Present compound (1), 5-benzyl-2-thenyl 2',2'-dimethyl-3'-(2",2"-dichlorovinyl)-cyclopropanecarboxylate] are 28 µg/mL (≈ 70.8 µM), 3.0 and 17 min.

Turning to `CC(C)=CC1C(C(=O)OCc2ccc(Oc3ccccc3)s2)C1(C)C` (stereo not shown), in data set [3], the LC50 was 97 µg/mL (≈ 272 µM) and the Relative efficacy was 1.0. Also, in data set [1], the “KT50 (a time required for 50% knock-down)” value turned out to be 45 min.

`C=CCc1ccc(COC(=O)C2C(C=C(C)C)C2(C)C)s1` (stereo not shown): the “KT50 (a time required for 50% knock-down)” value in data set [1] worked out at 40 min.

Regarding `CC1(C)C(C=C(Cl)Cl)C1C(=O)OCc1cc2c(s1)CCCC2` (stereo not shown) [Present compound (4), 4-5-Tetramethylene-2-thenyl 2',2'-dimethyl-3'-(2",2"-dichlorovinyl)-cyclopropanecarboxylate], the “KT50 (a time required for 50% knock-down)” value in data set [1] stood at 24 min. For `C#CCc1ccc(COC(=O)C2C(C=C(Cl)Cl)C2(C)C)s1` (stereo not shown) [Present compound (7), 5-Propargyl-2-thenyl 2',2'-dimethyl-3'-(2",2"-dichlorovinyl)-cyclopropanecarboxylate], the “KT50 (a time required for 50% knock-down)” value in data set [1] was 15 min. On to `CC(C)=C[C@@H]1[C@@H](C(=O)OCc2cc3c(s2)CCCC3)C1(C)C` (relative stereo), for which the LC50 in data set [2] (24 h) worked out at 834 µg/mL (≈ 2620 µM). Moreover, the Relative efficacy in data set [2] came out at 1.0.

With `CC1(C)C(C=C(Cl)Cl)C1C(=O)OCc1ccc(Oc2ccccc2)s1` (stereo not shown) [Present compound (2), 5-Phenoxy-2-thenyl 2',2'-dimethyl-3'-(2",2"-dichlorovinyl)-cyclopropanecarboxylate], in data set [3], the LC50 is 37 µg/mL (≈ 93.1 µM) and the Relative efficacy is on record as 2.6. Moreover, the “KT50 (a time required for 50% knock-down)” value in data set [1] was determined as 28 min. In the same order, the values of `CC(C)=CC1C(C(=O)OCc2ccc(Cc3ccccc3)s2)C1(C)C` (stereo not shown) are 85 µg/mL (≈ 240 µM), 1.0 and 37 min.

Regarding `CC(C)=CC1C(C(=O)OCc2cc3c(s2)CCC3)C1(C)C` (stereo not shown), in data set [3], the LC50 is 114 µg/mL (≈ 374 µM) and the Relative efficacy was 1.0. The “KT50 (a time required for 50% knock-down)” value in data set [1] was 43 min. Regarding `C#CCc1ccc(COC(=O)[C@@H]2[C@@H](C=C(C)C)C2(C)C)s1` (relative stereo), the LC50 in data set [2] (24 h) turned out to be 858 µg/mL (≈ 2840 µM). Also, in data set [2], the Relative efficacy turned out to be 1.0. In the same order, the values of `CC(C)=C[C@@H]1[C@@H](C(=O)OCc2ccc(Oc3ccccc3)s2)C1(C)C` (relative stereo) are 540 µg/mL (≈ 1510 µM) and 1.0. For the compound `C=CCc1ccc(COC(=O)C2C(C=C(Cl)Cl)C2(C)C)s1` (stereo not shown) [Present compound (6), 5-Allyl-2-thenyl 2',2'-dimethyl-3'-(2",2"-dichlorovinyl)-cyclopropanecarboxylate], the “KT50 (a time required for 50% knock-down)” value in data set [1] was 19 min.

In the case of `C=CCC1=C(C)C(OC(=O)C2C(C=C(Cl)Cl)C2(C)C)CC1=O` (stereo not shown) [allethronyl ester of the acid], in the data set on insects, the insecticidal activity result is reported as “close to that of chrysanthemic acid ester”. Take `C#CCc1ccc(COC(=O)[C@@H]2[C@@H](C=C(Cl)Cl)C2(C)C)s1` (relative stereo) [dl-Trans isomer of present compound (7), 5-Propargyl-2-thenyl 2',2'-dimethyl-3'-(2",2"-dichlorovinyl)-cyclopropanecarboxylate]: the LC50 in data set [2] (24 h) stood at 205 µg/mL (≈ 597 µM). The Relative efficacy in data set [2] turned out to be 4.2. On the same counts, the results for `CC1(C)[C@H](C=C(Cl)Cl)[C@H]1C(=O)OCc1ccc(Cc2ccccc2)s1` (relative stereo) [dl-Trans isomer of present compound (1), 5-benzyl-2-thenyl 2',2'-dimethyl-3'-(2",2"-dichlorovinyl)-cyclopropanecarboxylate] are 90 µg/mL (≈ 228 µM) and 4.3.

The values above are taken from patent US3932459A, “Novel cyclopropanecarboxylic acid esters” (Sumitomo Chemical Company, Limited, priority 1973, dated 1976).
